Measurements as given in patent US12168650B2, “Crystalline forms of 3-(5-(2-hydroxy-2-methylpropoxy)-6-methylpyrazin-2-yl)-1H-indole-7-carbonitrile” (NIDO BIOSCIENCES, INC., priority 2022, dated 2024).
Converted amounts (≈) assume the structure as drawn.

Tests used:
[1] = Stability of Form C (Tables 5A-5F); assay type: physicochemical
[2] = Competitive equilibration experiments of anhydrates; conditions: at both 25° C. and 50° C.
Procedure: Relative stability of the anhydrate Forms A, C, H and J was investigated with competitive equilibration experiments.
Relative stability of the anhydrates Forms C, K and L was investigated with competitive equilibration experiments.
To determine relative stability of anhydrates, competitive equilibration experiments were conducted in different solvent systems.
About 2 mg of each anhydrate was added to 0.3-0.4 mL saturated solutions of selected solvents. Obtained suspensions were stirred at 25° C. for 3-10 days, respectively. Solid parts (wet cakes) were isolated by centrifugation filtration and investigated by XRPD.

[3] = Hygroscopicity by dynamic vapor sorption (DVS); assay type: physicochemical
Procedure: Dynamic vapor sorption (DVS) was performed on an Intrinsic, Advantage or Adventure with an oven temperature of 25° C. using water as a solvent. The sample mass was about 5-10 mg using the following method: • Cycle: 40-0-95-0-40% RH • Stage Step: 10% • Equilibrium: 0.002 dm/dt (%/min) • Minimum dm/dt stability duration: 60 min • Maximum dm/dt stage time: 360 min. Analysis of Polymorphs
Hygroscopicity of Form C was evaluated by dynamic vapor sorption (DVS) test at 25° C. Form C is non-hygroscopic below 90% relative humidity (RH). Form C absorbs about 0.2% water in 95% RH at 25° C.

[4] = Interconversion of polymorphs (heating, dehydration, humidity, equilibration); assay type: physicochemical
Description: In total, 15 forms were identified to be polymorphs or pseudo-polymorphs of the free form, including seven anhydrates, Forms A, C, H, J, K. L and O; four hydrates, Forms B, F, M and N; and three solvates, Forms D, E and I. In addition, a metastable form, Form G, and an amorphous form were also obtained.
The interconversion relation of polymorphs identified is outlined in FIG. 5.

[5] = Solubility in aqueous media at 37° C.; assay type: physicochemical; conditions: for XRPD of residual solids: 24 h; for solubility at 2 h / solubility at 24 h: thermodynamic from solid
Procedure: The anhydrate Form C (equivalent to 8 mg of free form) was weighed into a 20 mL glass vial. 4 mL of solubility medium was added. Obtained suspensions were stirred at 37° C. at 400 rpm. Some of the suspensions were taken out at 2 hours and 24 hours, respectively. Then they were centrifuged at 3700 at 14,000 rpm for 5 (m. Supernatants were analyzed by HPLC and pH meter for solubility and pH, respectively. Residual solids (wet cakes) were characterized by XRPD to determine physical form.

[6] = pH 7.0 phosphate buffer (50 mM)
[7] = aqueous buffer, pH 3.0 citrate buffer (50 mM)
[8] = aqueous buffer, pH 5.0 acetate buffer (50 mM)
[9] = aqueous buffer, pH 7.0 phosphate buffer (50 mM)
[10] = simulated gastric fluid, pH 1.0 HCl solution (0.1N)

## Cc1nc(-c2c[nH]c3c(C#N)cccc23)cnc1OCC(C)(C)O [Form C, 3-(5-(2-hydroxy-2-methylpropoxy)-6-methylpyrazin-2-yl)-1H-indole-7-carbonitrile]
[1]; 25° C./60% RH, 01 Month
  Impurities, HPLC: A: <0.05 area %
  Impurities, HPLC: B: <0.05 area %
  Impurities, HPLC: C: <0.05 area %
  Impurities, HPLC: D: <0.05 area %
  Impurities, HPLC: RRT 1.07: 0.71 area %
  Impurities, HPLC: SM1: <0.05 area %
  Impurities, HPLC: SM2: <0.05 area %
  Impurities, HPLC: Unidentified impurity: <0.05 area %
  Purity, HPLC: 99.3 area %
  Water content: <0.05 wt %
[1]; 25° C./60% RH, 03 Month
  Impurities, HPLC: A: <0.05 area %
  Impurities, HPLC: B: <0.05 area %
  Impurities, HPLC: C: <0.05 area %
  Impurities, HPLC: D: <0.05 area %
  Impurities, HPLC: RRT 1.07: 0.77 area %
  Impurities, HPLC: SM1: <0.05 area %
  Impurities, HPLC: SM2: <0.05 area %
  Impurities, HPLC: Unidentified impurity: <0.05 area %
  Purity, HPLC: 99.2 area %
  Water content: <0.05 wt %
[1]; 25° C./60% RH, 06 Month
  Impurities, HPLC: A: <0.05 area %
  Impurities, HPLC: B: <0.05 area %
  Impurities, HPLC: C: <0.05 area %
  Impurities, HPLC: D: <0.05 area %
  Impurities, HPLC: RRT 1.07: 0.73 area %
  Impurities, HPLC: SM1: <0.05 area %
  Impurities, HPLC: SM2: <0.05 area %
  Impurities, HPLC: Unidentified impurity: <0.05 area %
  Purity, HPLC: 99.3 area %
  Water content: <0.05 wt %
[1]; 25° C./60% RH, 09 Month
  Assay, HPLC: 99.4 wt %
  Impurities, HPLC: A: <0.05 area %
  Impurities, HPLC: B: <0.05 area %
  Impurities, HPLC: C: <0.05 area %
  Impurities, HPLC: D: <0.05 area %
  Impurities, HPLC: RRT 1.07: 0.72 area %
  Impurities, HPLC: SM1: <0.05 area %
  Impurities, HPLC: SM2: <0.05 area %
  Impurities, HPLC: Unidentified impurity: <0.05 area %
  Purity, HPLC: 99.3 area %
  Water content: <0.05 wt %
[1]; 25° C./60% RH, 12 Month
  Assay, HPLC: 99.4 wt %
  Impurities, HPLC: A: <0.05 area %
  Impurities, HPLC: B: <0.05 area %
  Impurities, HPLC: C: <0.05 area %
  Impurities, HPLC: D: <0.05 area %
  Impurities, HPLC: RRT 1.07: 0.74 area %
  Impurities, HPLC: SM1: <0.05 area %
  Impurities, HPLC: SM2: <0.05 area %
  Impurities, HPLC: Unidentified impurity: <0.05 area %
  Purity, HPLC: 99.3 area %
  Water content: <0.05 wt %
[1]; 25° C./60% RH, Initial
  Impurities, HPLC: A: <0.05 area %
  Impurities, HPLC: B: <0.05 area %
  Impurities, HPLC: C: <0.05 area %
  Impurities, HPLC: D: <0.05 area %
  Impurities, HPLC: RRT 1.07: 0.77 area %
  Impurities, HPLC: SM1: <0.05 area %
  Impurities, HPLC: SM2: <0.05 area %
  Impurities, HPLC: Unidentified impurity: <0.05 area %
  Purity, HPLC: 99.2 area %
  Water content: <0.05 wt %
[1]; 40° C./75% RH, 01 Month
  Assay, HPLC: 99.7 wt %
  Impurities, HPLC: A: <0.05 area %
  Impurities, HPLC: B: <0.05 area %
  Impurities, HPLC: C: <0.05 area %
  Impurities, HPLC: D: <0.05 area %
  Impurities, HPLC: RRT 1.07: 0.70 area %
  Impurities, HPLC: SM1: <0.05 area %
  Impurities, HPLC: SM2: <0.05 area %
  Impurities, HPLC: Unidentified impurity: <0.05 area %
  Purity, HPLC: 99.3 area %
  Water content: <0.05 wt %
[1]; 40° C./75% RH, 03 Month
  Assay, HPLC: 98.7 wt %
  Impurities, HPLC: A: <0.05 area %
  Impurities, HPLC: B: <0.05 area %
  Impurities, HPLC: C: <0.05 area %
  Impurities, HPLC: D: <0.05 area %
  Impurities, HPLC: RRT 1.07: 0.77 area %
  Impurities, HPLC: SM1: <0.05 area %
  Impurities, HPLC: SM2: <0.05 area %
  Impurities, HPLC: Unidentified impurity: <0.05 area %
  Purity, HPLC: 99.2 area %
  Water content: <0.05 wt %
[1]; 40° C./75% RH, 06 Month
  Assay, HPLC: 99.1 wt %
  Impurities, HPLC: A: <0.05 area %
  Impurities, HPLC: B: <0.05 area %
  Impurities, HPLC: C: <0.05 area %
  Impurities, HPLC: D: <0.05 area %
  Impurities, HPLC: RRT 1.07: 0.73 area %
  Impurities, HPLC: SM1: <0.05 area %
  Impurities, HPLC: SM2: <0.05 area %
  Impurities, HPLC: Unidentified impurity: <0.05 area %
  Purity, HPLC: 99.3 area %
  Water content: <0.05 wt %
[1]; 40° C./75% RH, Initial
  Assay, HPLC: 99.4 wt %
  Impurities, HPLC: A: <0.05 area %
  Impurities, HPLC: B: <0.05 area %
  Impurities, HPLC: C: <0.05 area %
  Impurities, HPLC: D: <0.05 area %
  Impurities, HPLC: RRT 1.07: 0.77 area %
  Impurities, HPLC: SM1: <0.05 area %
  Impurities, HPLC: SM2: <0.05 area %
  Impurities, HPLC: Unidentified impurity: <0.05 area %
  Purity, HPLC: 99.2 area %
  Water content: <0.05 wt %
[1]; conditions where the temperature and relative humidity are altered
  Stability: stable
[2]
  Relative thermodynamic stability of anhydrates: thermodynamically stable anhydrate
[3]; DVS at 25° C.
  Form after the DVS test: still in Form C
[3]; DVS at 25° C., below 90% relative humidity (RH)
  Hygroscopicity: non-hygroscopic
[3]; DVS, 95% RH at 25° C.
  Water absorbed: about 0.2%
[4]
  Stability compared to the other polymorph forms: most stable polymorph
[5]; pH 1.0 HCl solution (0.1N)
  XRPD of residual solids: Form C
  24 h (pH) of supernatant: 1.0
[5]; pH 3.0 citrate buffer (50 mM)
  XRPD of residual solids: Form C
  24 h (pH) of supernatant: 3.1
[5]; pH 5.0 acetate buffer (50 mM)
  XRPD of residual solids: Form C
  24 h (pH) of supernatant: 5.1
[5]; [6]
  XRPD of residual solids: Form C
  24 h (pH) of supernatant: 7.3
[5]; [7]
  solubility at 2 h: 5.97 µg/mL (≈ 18.5 µM)
  solubility at 24 h: 4.08 µg/mL (≈ 12.7 µM)
[5]; [8]
  solubility at 2 h: 5.44 µg/mL (≈ 16.9 µM)
  solubility at 24 h: 3.85 µg/mL (≈ 11.9 µM)
[5]; [9]
  solubility at 2 h: 5.43 µg/mL (≈ 16.8 µM)
  solubility at 24 h: 11.6 µg/mL (≈ 35.9 µM)
[5]; [10]
  solubility at 2 h: 17 µg/mL (≈ 52.8 µM)
  solubility at 24 h: 14.6 µg/mL (≈ 45.2 µM)
